Structures can show the parent of a compound that is named as a salt.
Legend:
human α-thrombin = target: T1, human α-thrombin (Homo sapiens, UniProt P00734); experiment: Enzymatic assay for thrombin (fluorogenic peptide substrate Boc-VPR-AMC); assay type: biochemical
T1 construct: enzyme (human α-thrombin (BioPharm® Lab.)) in assay buffer; purchased BioPharm® Lab
How it was run: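 Assay conditions kept the reaction linear in time, enzyme and substrate, so IC50 approximated Ki apart from tight- or slow-binding cases. Boc-VPR-AMC cleavage by human α-thrombin proceeded 20 min at room temperature in Hepes pH 7.4/NaCl/Tween 20 buffer, then was acid-quenched and read by fluorescence.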

MASP-2 (CCP1-CCP2-SP) = target: T2, MASP-2 (CCP1-CCP2-SP) (Homo sapiens, UniProt O00187); experiment: Enzymatic assay for MASP-2 inhibitory activity (fluorogenic substrate); assay type: biochemical
T2 construct: 15 μL of Enzyme MASP-2 (CCP1-CCP2-SP) in Assay Buffer
T2 sequence (O00187 445-686 limits assumed): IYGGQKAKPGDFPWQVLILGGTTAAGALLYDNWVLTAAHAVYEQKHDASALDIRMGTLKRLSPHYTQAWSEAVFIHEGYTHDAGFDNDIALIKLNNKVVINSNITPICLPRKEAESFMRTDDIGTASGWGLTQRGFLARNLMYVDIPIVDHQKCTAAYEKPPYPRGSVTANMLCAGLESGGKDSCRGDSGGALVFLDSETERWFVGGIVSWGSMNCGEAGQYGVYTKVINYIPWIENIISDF
T2 sequence (O00187 287-444 partner limits assumed): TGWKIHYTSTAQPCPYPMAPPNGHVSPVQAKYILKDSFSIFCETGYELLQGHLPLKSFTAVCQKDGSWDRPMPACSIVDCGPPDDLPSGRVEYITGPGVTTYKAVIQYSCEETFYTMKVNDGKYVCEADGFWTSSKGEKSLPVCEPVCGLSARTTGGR
How it was run: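 Fluorescence was normalized between no-enzyme and DMSO-only controls to derive % activity, with IC50 taken as equivalent to Ki except for tight-binding inhibitors. Reactions ran 20 min at room temperature in HEPES pH 7.4/NaCl/Tween 20 buffer, using the C2-derived fluorogenic substrate, before acetic acid stop.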

Row | SMILES | Ki (human α-thrombin) [µM] | Ki (MASP-2 (CCP1-CCP2-SP)) [µM]
1 | O=C(NCc1cc2c(s1)CNC2)[C@@H]1CCc2cnc(N[C@@H]3CCc4ccccc43)c(=O)n21 [Compound 254, (S)-3-(((R)-2,3-dihydro-1H-inden-1-yl)amino)-N-((5,6-dihydro-4H-thieno[2,3-c]pyrrol-2-yl)methyl)-4-oxo-4,6,7,8-tetrahydropyrrolo[1,2-a]pyrazine-6-carboxamide] | 0.5 to 2.5 | < 0.5
2 | Cc1nc(N)ccc1CNC(=O)[C@@H]1CCc2cnc(NCc3cccc(-n4cccn4)c3)c(=O)n21 [Compound 169, (S)-3-((3-(1H-pyrazol-1-yl)benzyl)amino)-N-((6-amino-2-methylpyridin-3-yl)methyl)-4-oxo-4,6,7,8-tetrahydropyrrolo[1,2-a]pyrazine-6-carboxamide trifluoroacetate] | < 0.5 | < 0.5
3 | O=C(NCc1cc2c(s1)CNC2)[C@@H]1CCc2cnc(N3CC(c4ccccc4)C3)c(=O)n21 [Compound 119, (S)—N-((5,6-dihydro-4H-thieno[2,3-c]pyrrol-2-yl)methyl)-4-oxo-3-(3-phenylazetidin-1-yl)-4,6,7,8-tetrahydropyrrolo[1,2-a]pyrazine-6-carboxamide] | > 25 | 2.5 to 10
4 | Cc1ccc(C)c(CNc2ncc3n(c2=O)[C@H](C(=O)NCc2cc4cnccc4[nH]2)CC3)c1 [Compound 56, (S)-N-((1H-pyrrolo[3,2-c]pyridin-2-yl)methyl)-3-((2,5-dimethylbenzyl)amino)-4-oxo-4,6,7,8-tetrahydropyrrolo[1,2-a]pyrazine-6-carboxamide] | 0.5 to 2.5 | < 0.5
5 | Cc1nc(N)ccc1CNC(=O)[C@@H]1CCc2c(Cl)nc(NCCC(F)F)c(=O)n21 [Compound 18, (S)-N-((6-amino-2-methylpyridin-3-yl)methyl)-1-chloro-3-((3,3-difluoropropyl)amino)-4-oxo-4,6,7,8-tetrahydropyrrolo[1,2-a]pyrazine-6-carboxamide] | 2.5 to 10 | < 0.5
6 | Cc1cc(F)cc(CNc2nc(Cl)c3n(c2=O)[C@H](C(=O)NCc2ccc(N)nc2C)CC3)c1 [Compound 212, (S)—N-((6-amino-2-methylpyridin-3-yl)methyl)-1-chloro-3-((3-fluoro-5-methylbenzyl)amino)-4-oxo-4,6,7,8-tetrahydropyrrolo[1,2-a]pyrazine-6-carboxamide trifluoroacetate] | 2.5 to 10 | < 0.5
7 | Cc1cc(F)cc(CNc2nc(C(C)C)c3n(c2=O)[C@H](C(=O)NCc2ccc(N)nc2C)CC3)c1 [Compound 211, (S)-N-((6-amino-2-methylpyridin-3-yl)methyl)-3-((3-fluoro-5-methylbenzyl)amino)-1-isopropyl-4-oxo-4,6,7,8-tetrahydropyrrolo[1,2-a]pyrazine-6-carboxamide trifluoroacetate] | < 0.5 | < 0.5
8 | O=C(NCc1cc2cnccc2[nH]1)[C@@H]1CCc2c(C3CC3)nc(NCCc3ccccc3)c(=O)n21 [Compound 247] | 0.5 to 2.5 | < 0.5
9 | Cc1cc(F)cc(CNc2nc(-c3ccccc3)c3n(c2=O)[C@H](C(=O)NCc2ccc(N)nc2C)CC3)c1 [Compound 217, (S)-N-((6-amino-2-methylpyridin-3-yl)methyl)-3-((3-fluoro-5-methylbenzyl)amino)-4-oxo-1-phenyl-4,6,7,8-tetrahydropyrrolo[1,2-a]pyrazine-6-carboxamide trifluoroacetate] | > 25 | < 0.5
10 | Cc1ccccc1CNc1ncc2n(c1=O)[C@H](C(=O)NCc1cc3cnccc3[nH]1)CC2 [Compound 53, (S)-N-((1H-pyrrolo[3,2-c]pyridin-2-yl)methyl)-3-((2-methylbenzyl)amino)-4-oxo-4,6,7,8-tetrahydropyrrolo[1,2-a]pyrazine-6-carboxamide] | 0.5 to 2.5 | < 0.5
11 | Cc1ccc(F)c(CNc2ncc3n(c2=O)[C@H](C(=O)NCc2ccc(N)nc2)CC3)c1 [Compound 79, (S)-N-((6-aminopyridin-3-yl)methyl)-3-((2-fluoro-5-methylbenzyl)amino)-4-oxo-4,6,7,8-tetrahydropyrrolo[1,2-a]pyrazine-6-carboxamide] | < 0.5 | < 0.5
12 | Cc1cc2[nH]c(CNC(=O)[C@@H]3CCc4cnc(NCc5cccc(C(C)(C)O)c5)c(=O)n43)cc2cn1 [Compound 68, (S)-3-((3-(2-hydroxypropan-2-yl)benzyl)amino)-N-((6-methyl-1H-pyrrolo[3,2-c]pyridin-2-yl)methyl)-4-oxo-4,6,7,8-tetrahydropyrrolo[1,2-a]pyrazine-6-carboxamide] | > 25 | < 0.5
13 | CC[C@@H](Nc1ncc2n(c1=O)[C@H](C(=O)NCc1cc3c(s1)CNC3)CC2)c1ccc(C)cc1 [Compound 266, (S)-N-((5,6-dihydro-4H-thieno[2,3-c]pyrrol-2-yl)methyl)-4-oxo-3-(((R)-1-(p-tolyl)propyl)amino)-4,6,7,8-tetrahydropyrrolo[1,2-a]pyrazine-6-carboxamide trifluoroacetate] | < 0.5 | < 0.5
14 | Cc1nc(N)ccc1CNC(=O)C1CCc2c(Cl)nc(NCc3cncnc3)c(=O)n21 (centres unmarked) [Compound 150] | 2.5 to 10 | < 0.5
15 | CC[C@H]1C[C@@H](C(=O)NCc2ccc(N)nc2C)n2c1cnc(NCc1cc(C)cc(C)c1)c2=O [Compound 156, (6S,8S)-N-((6-amino-2-methylpyridin-3-yl)methyl)-3-((3,5-dimethylbenzyl)amino)-8-ethyl-4-oxo-4,6,7,8-tetrahydropyrrolo[1,2-a]pyrazine-6-carboxamide] | < 0.5 | < 0.5
16 | O=C(NCc1cc2cnccc2[nH]1)[C@@H]1CCc2cnc(NCc3cccc(-c4ccccc4)c3)c(=O)n21 [Compound 147, (S)—N-((1H-pyrrolo[3,2-c]pyridin-2-yl)methyl)-3-(([1,1′-biphenyl]-3-ylmethyl)amino)-4-oxo-4,6,7,8-tetrahydropyrrolo[1,2-a]pyrazine-6-carboxamide] | 2.5 to 10 | < 0.5
17 | CC(C)(C)[C@@H](Nc1ncc2n(c1=O)[C@H](C(=O)NCc1cc3c(s1)CNC3)CC2)c1ccc(F)cc1 [Compound 280, (S)—N-((5,6-dihydro-4H-thieno[2,3-c]pyrrol-2-yl)methyl)-3-(((R)-1-(4-fluorophenyl)-2,2-dimethylpropyl)amino)-4-oxo-4,6,7,8-tetrahydropyrrolo[1,2-a]pyrazine-6-carboxamide] | < 0.5 | < 0.5
18 | Cc1cccc([C@H](C)Nc2ncc3n(c2=O)[C@H](C(=O)NCc2cc4cnccc4[nH]2)CC3)c1 [Compound 74, (S)-N-((1H-pyrrolo[3,2-c]pyridin-2-yl)methyl)-4-oxo-3-(((S)-1-(m-tolyl)ethyl)amino)-4,6,7,8-tetrahydropyrrolo[1,2-a]pyrazine-6-carboxamide] | 0.5 to 2.5 | < 0.5
19 | CC[C@H]1C[C@@H](C(=O)NCc2ccc(N)nc2C)n2c1c(Cl)nc(NCc1ccccc1)c2=O [Compound 134, (6S,8S)-N-((6-amino-2-methylpyridin-3-yl)methyl)-3-(benzylamino)-1-chloro-8-ethyl-4-oxo-4,6,7,8-tetrahydropyrrolo[1,2-a]pyrazine-6-carboxamide] | 0.5 to 2.5 | < 0.5
20 | Cc1cccc(CNc2nc(Cl)c3n(c2=O)[C@H](C(=O)NCc2cc4c(s2)CNC4)CC3)c1C [Compound 33, (S)-1-chloro-N-((5,6-dihydro-4H-thieno[2,3-c]pyrrol-2-yl)methyl)-3-((2,3-dimethylbenzyl)amino)-4-oxo-4,6,7,8-tetrahydropyrrolo[1,2-a]pyrazine-6-carboxamide] | 2.5 to 10 | < 0.5
21 | Cc1ccccc1CNc1nc(Cl)c2n(c1=O)[C@H](C(=O)NCc1cc3cnccc3[nH]1)CC2 [Compound 9, (S)-N-((1H-pyrrolo[3,2-c]pyridin-2-yl)methyl)-1-chloro-3-((2-methylbenzyl)amino)-4-oxo-4,6,7,8-tetrahydropyrrolo[1,2-a]pyrazine-6-carboxamide] | 2.5 to 10 | < 0.5
22 | Cc1nc(N)ccc1CNC(=O)[C@@H]1CCc2cnc(NCc3cnn(C)c3)c(=O)n21 [Compound 167, (S)-N-((6-amino-2-methylpyridin-3-yl)methyl)-3-(((1-methyl-1H-pyrazol-4-yl)methyl)amino)-4-oxo-4,6,7,8-tetrahydropyrrolo[1,2-a]pyrazine-6-carboxamide trifluoroacetate] | 0.5 to 2.5 | < 0.5
23 | Cc1ccc(F)cc1CNc1ncc2n(c1=O)[C@H](C(=O)NCc1cc3cnccc3[nH]1)CC2 [Compound 63, (S)-N-((1H-pyrrolo[3,2-c]pyridin-2-yl)methyl)-3-((5-fluoro-2-methylbenzyl)amino)-4-oxo-4,6,7,8-tetrahydropyrrolo[1,2-a]pyrazine-6-carboxamide] | 0.5 to 2.5 | < 0.5
24 | Cc1cc(F)cc(CNc2nc(-c3ccnn3C)c3n(c2=O)[C@H](C(=O)NCc2cc4c(s2)CNC4)CC3)c1 [Compound 209, (S)—N-((5,6-dihydro-4H-thieno[2,3-c]pyrrol-2-yl)methyl)-3-((3-fluoro-5-methylbenzyl)amino)-1-(1-methyl-1H-pyrazol-5-yl)-4-oxo-4,6,7,8-tetrahydropyrrolo[1,2-a]pyrazine-6-carboxamide trifluoroacetate] | 2.5 to 10 | < 0.5
25 | Cc1cc(C)cc(CNc2ncc3n(c2=O)[C@H](C(=O)N[C@H](C)c2ccc(N)nc2)CC3)c1 [Compound 198, (S)-N-((R)-1-(6-aminopyridin-3-yl)ethyl)-3-((3,5-dimethylbenzyl)amino)-4-oxo-4,6,7,8-tetrahydropyrrolo[1,2-a]pyrazine-6-carboxamide trifluoroacetate] | 2.5 to 10 | < 0.5
